Source: patent US7858612B2, “Therapeutic agent for inflammatory bowel diseases” (Meiji Seika Kaisha, Ltd., priority 2007, dated 2010)
Where two headings read alike, the source gives them in different places.

Key:
[1] = Test for converting Compound A into Compound B (oral 14C Compound A, Radio-HPLC); assay type: in vivo, Wistar rats
Method: Male 8 week-old Wistar rats (purchased from Japan SLC, Inc.) under fasting conditions were orally administered with ^14C labeled Compound A at a dose of 1 mg/kg, and the amounts of Compound B in plasma, urine and bile were determined by Radio-HPLC.

[2] = tested on: carrageenin induced paw edema in rats; assay: Carrageenin induced paw edema in rats; assay type: in vivo, Wistar rats; details: for Volume of edema: 3 h after carrageenin, mean ± SE
Method: To right hind paws of male 7 week-old Wistar rats (purchased from Japan SLC, Inc.) 0.1 ml of 1% λ-carrageenin was subcutaneously injected to cause paw edema reaction (n=5). Compound A at doses of 1 to 25 mg/kg and indomethacin at a dose of 5 mg/kg were orally administered 15 and 60 minutes before administration of carrageenin, respectively.
Three hours after administration of carrageenin, when the paw edema reaction reached maximum, the effectiveness was evaluated from the volumes of the right hind paw edema.

DSS induced IBD model = assay: 3% dextran sulfate sodium (DSS) induced acute rat IBD model (prophylactic effect); assay type: in vivo, Wistar rats; details: 10 mg/kg/day oral; for inhibition at 10 mg/kg/day: Rattus norvegicus, po, read-out: Inhibition rate (%)
Excerpt: IBD was induced by freely allowing male 7 week-old Wistar rats (purchased from Japan SLC, Inc.) to ingest 3% DSS solution (n=8). In the period of 7 days after initiating DSS administration, soft feces and blood feces scores were observed according to the following basis, and the sum of the soft feces score and blood feces score was obtained as the feces score of the individual animal.
• Soft feces score (0 to 3) • [0: nothing abnormal detected (NAD), • 1: slightly soft, • 2: soft, • 3: diarrhea] • Blood feces score (0 to 3) • [0: nothing abnormal detected (NAD), • 1: blood in feces, • 2: bright-red blood adhered on feces, • 3: melena]
1% Evans blue physiological saline was intravenously injected in an amount of 1 ml per rat 8 days after DSS exposure, and the animal was euthanized 30 minutes after that for excising the large intestine. After immobilizing the large intestine in the length of 7 to 8 cm from anus with 4% formalin buffer for 20 minutes, the intestine was longitudinally opened from the mesenterium side for photographing the rectal portion. Ulcer area was calculated by image analysis.
Compound A (10 mg/kg/day), or. sulfasalazine (100 mg/kg/day) or prednisolone (1 mg/kg/day) as a control compound was made into suspension in an agate mortar, which was orally administered twice a day at a dose of 5 ml/kg to each rat starting from a day before administration of DSS to a day before dissection. In this connection, 1% hydroxypropylmethyl cellulose solution (HPMC) was used as a solvent, which was administered at a dose of 5 ml/kg to the solvent treated group.

[3] = tested on: DSS induced rat IBD chronic model; assay: DSS induced rat IBD chronic model (therapeutic effect); assay type: in vivo, Wistar rats
Method: Colitis was induced by freely allowing male 7 week-old Wistar rats (purchased from Japan SLC, Inc.) to ingest 3% DSS solution for 3 days, and subsequently chronic IBD was induced by freely allowing to ingest 1% DSS solution starting from the 4th day of the test.
Compound A (2, 20 mg/kg/day), 5-aminosalicylic acid as a control (5-ASA: 200 mg/kg/day) and cyclosporine A (Cy A: 25 mg/kg/day) were administered to the animals starting from the 4th day of the test until the day of dissection (n=8 to 20).
The property of feces in individual animal was observed until the day before dissection, and the soft feces score and the blood feces score were determined according to the same basis as shown in Test Example 3 to obtain the sum of the soft feces score and blood feces score as the feces score.
Also, 1% Evans blue physiological saline was intravenously injected in an amount of 1 ml per rat on the day of dissection, and the animal was euthanized 30 minutes after that for excising the large intestine. After immobilizing the large intestine in the length of 7 to 8 cm from anus with 4% formalin buffer for 20 minutes, the intestine was longitudinally opened from the mesenterium side for photographing the rectal portion and measuring the rectum weight. The state and extent of eroded rectal portion were scored according to the following basis for making a macro observation score.
Macro observation score (0-5)
[0: normal, • 1: erosion formation in narrow ranges, • 2: weak erosion formation, without bleeding, • 3: moderate erosion formation and weak bleeding in narrow ranges, • 4: strong erosion formation and bleeding in narrow ranges, • 5: strong erosion formation and bleeding in wide ranges]
A therapeutic effect of Compound B orally administered was examined in the same manner as in Test Example 4 except that Compound B (20 mg/kg/day) was used in place of Compound A (n=12).

TNBS induced IBD model [4] = assay: Trinitrobenzene sulfonic acid (TNBS) induced rat IBD model (therapeutic effect); assay type: in vivo, SD rats
Method: 8 week-old male SD rats (purchased from Charles River
Laboratories Japan, Inc.) were intrarectally treated with TNBS to induce enteritis, and divided into groups 2 days after the treatment with TNBS to initiate the administration of the drugs. A solvent, Compound A (2, 20, 50 mg/kg/day), or prednisolone (6 mg/kg/day) was orally administered twice a day, and the rats were subjected to autopsy 8 days after administration for determining the macro observation score. The evaluation of the score was conducted by the method described in Table 4 according to the judgment method by JOHN L. WALLACE et al. (Gastroenterology 1989; 96: 29-36).
Furthermore, the large intestine was cut to a length of 10 cm for measuring the wet weight of intestine.

in vivo = assay: in vivo; parameters: species or system SD rats; details: both sexes, SD, rat, po
Method: To 6 week-old male and female SD rats (purchased from
Charles River Laboratories Japan, Inc.) a solvent (hydroxymethyl cellulose) or Compound A (100, 300, 1000 mg/kg/day) was administered orally and repeatedly for 26 consecutive weeks (n=15).

TNBS induced IBD model [5] = assay: Trinitrobenzene sulfonic acid (TNBS) induced rat IBD model (therapeutic effect); assay type: in vivo, SD rats; details: 5 mg/kg × 2 oral, from 2 days after TNBS
[6] = cited from earlier work
[7] = 20 mg/kg/day from 4th day, vs solvent treated group

Question: Which results are given for `COc1cc2[nH]c(=O)c3nn(C(OC(=O)OC(C)C)C(C)C)nc3c(=O)c2cc1OC` (stereo not shown) [Compound A, 2-(1-Isopropoxycarbonyloxy-2-methylpropyl)-7,8-dimethoxy-4(5H),10-dioxo-2H-1,2,3-triazolo[4,5-c][1]benzoazepine]?
Answer: Detection in plasma ([1]; 15 minutes after oral 14C labeled Compound A 1 mg/kg, fasting rats): not detected; Detection in bile ([1]; bile collected for 8 hours after oral 14C labeled Compound A 1 mg/kg): not detected; Metabolism of Compound A into Compound B on absorption ([1]; oral 1 mg/kg, rats): nearly all of Compound A was metabolized into Compound B; Detection in urine ([1]; urine collected for 24 hours after oral 14C labeled Compound A 1 mg/kg): not detected; Volume of edema ([2]; 1 mg/kg oral 15 min before carrageenin): 0.87 ± 0.04 mL; Volume of edema ([2]; 5 mg/kg oral 15 min before carrageenin): 0.89 ± 0.04 mL; Volume of edema ([2]; 25 mg/kg oral 15 min before carrageenin): 0.67 ± 0.05 mL; Inhibitory effect on paw edema ([2]; any doses (1 to 25 mg/kg oral)): no inhibitory effect; Side effects (DSS induced IBD model): without any side effects; inhibition at 10 mg/kg/day (DSS induced IBD model; Table 2 (ulcer area reduction effect)): 36.4%; inhibition at 10 mg/kg/day (DSS induced IBD model; Table 3 (feces score)): 40.7%; ulcer area (DSS induced IBD model; Table 2 (title: ulcer area reduction effect), twice a day, mean ± SE): 291.3 ± 37.0; Feces score (DSS induced IBD model; Table 3 (effectiveness on feces score), mean ± SE): 2.00 ± 0.53; Effect on the feces score on the day before dissection (FIG. 3) ([3]; 2 mg/kg/day from 4th day): significant (P<0.005) ameliorating effect; Effect on the increase of rectum weight (FIG. 2) ([3]; 2 mg/kg/day from 4th day, vs solvent treated group): significant (P<0.005, P<0.05) ameliorating effect; Effect on macro observation score (FIG. 4) ([3]; 2 mg/kg, P=0.0509 category test, P=0.1161 segmentation test): inhibitory tendency; Effect on the feces score on the day before dissection (FIG. 3) ([3]; 20 mg/kg/day from 4th day): significant (P<0.005) ameliorating effect; Effect on the increase of rectum weight (FIG. 2) [3, 7]: significant (P<0.005, P<0.05) ameliorating effect; Effect on the shortening of large intestine (FIG. 1) [3, 7]: significant (P<0.01) ameliorating effect; Effect on macro observation score (FIG. 4) ([3]; 20 mg/kg/day, P=0.0006 category test, P=0.0003 segmentation test): significant ameliorating effect; Side effects such as inhibition of weight gain ([3]; rat, in vivo): not observed; Colonic ulceration score (TNBS induced IBD model [4]; 1 mg/kg × 2 oral, from 2 days after TNBS): 3.5 ± 0.4; Colonic ulceration score (TNBS induced IBD model [4]; 25 mg/kg × 2 oral, from 2 days after TNBS): 3.3 ± 0.3; Weight gain (TNBS induced IBD model [4]; Compound A treated group (2 to 50 mg/kg/day oral)): significant inhibition of weight gain was not observed; Colonic ulceration score (TNBS induced IBD model [4]; Table 6 (title: colonic wet weight of large intestine, 10 cm), 25 mg/kg × 2 oral): 1.20 ± 0.04; NOAEL at 26 weeks (in vivo): ≥ 1000 mg/kg/day; Colonic ulceration score (TNBS induced IBD model [5]): 3.5 ± 0.5; Absorbability upon oral administration relative to Compound B [6]: seven times as large as that of Compound B
